Experimental data taken from US20250074934A1, “CRYSTAL OF 4’-SUBSTITUTED NUCLEOSIDE, AND PREPARATION METHOD THEREFOR, COMPOSITION THEREOF AND USE THEREOF” (HENAN GENUINE BIOTECH CO., LTD., priority 2022, published 2025).

How the values were obtained:
[1] = test system: HIV; settings: cited from earlier work; for EC50: read-out: HIV inhibitory activity EC50
[2] = within the tested dose range; read-out: cytotoxicity CC50; cited from earlier work
[3] = stability of crystal forms on storage, drying or heating, checked by XRPD; type: physicochemical
Protocol: The type XVI crystal was heated to 55° C. in a nitrogen atmosphere and held for 2 to 24 h.
The type XVI crystal and the type XVII crystal were left at 60±5° C. for 5 days, respectively.
The type XVII crystal was left for 5 days under the conditions of 25° C. and 92.5±5% humidity.
The type XVIII crystal was heated to 150° C. or left for 24 h under the conditions of 25° C. and 92.5±5% humidity.
The crystal suffered from a weight loss of 13.2% when heated to 110° C., and a weight loss of 3.5% when further heated to 200° C. Three endothermic signals occurred in the range of 80° C. to 140° C. The type I crystal was heated to 55° C. under nitrogen protection and then cooled to room temperature. The sample was removed and exposed to air to test XRPD.
As the type II crystal was unstable and had been transformed after dying for a short period of time, no further studies were carried out on the type II crystal.
Under the conditions of nitrogen protection, the type IV crystal was heated to 141° C. and then tested for XRPD.
The type V crystal was subjected to the variable-temperature XRPD test.
The type VI crystal was heated to 160° C. under the nitrogen protection.
Under the nitrogen protection, the type VII crystal was heated to 130° C. and then cooled to room temperature. The sample was removed and exposed to the air to test XRPD.
Under the nitrogen protection, the type VIII crystal was heated to 160° C. and then cooled to room temperature. The sample was removed and exposed to the air to test XRPD.
The crystal was heated to 95° C. under nitrogen protection and then cooled to room temperature. The sample was removed and exposed to the air to test XRPD. […] The crystal was heated to 160° C. under the same conditions of nitrogen protection and then cooled to room temperature. The sample was removed and exposed to the air to test XRPD.
The type X crystal was subjected to the variable-temperature XRPD test.
The samples open dried at room temperature were characterized by TGA/DSC.
Meanwhile, the type XIII crystal was coated to test XRPD, and new type XIV crystal could be observed.

[4] = LC-MS detection of chemical changes in the crystal; type: physicochemical; settings: obtained from type XVI crystal left at 60° C. for 5 days
Protocol: The type XVI crystal was left at 60° C. for 5 days to obtain a type XVIII crystal, which was an anhydrous crystal.

[5] = heated to 160° C. under nitrogen protection

For C#C[C@]1(CO)O[C@@H](n2cnc3c(N)nc(F)nc32)C[C@@H]1O [Compound 1], the EC50 [1] is given as 0.05 nM and the “increase of HIV inhibitory activity by introduction of 2-fluorine” value ([1]; versus 4′-ethynyl-2′-deoxyadenosine (EdA)) is given as 2200 times.

For C#C[C@]1(CO)O[C@@H](n2cnc3c(N)ncnc32)C[C@@H]1O [EdA, 4′-ethynyl-2′-deoxyadenosine], the EC50 [1] is listed as 11 nM.

For C#C[C@]1(CO)O[C@@H](n2cnc3c(N)nc(F)nc32)[C@@H](F)[C@@H]1O [compound (3), (2R,3R,4S,5R)-5-(6-amino-2-fluoro-9H-purin-9-yl)-2-ethynyl-4-fluoro-2-(hydroxymethyl)tetrahydrofuran-3-ol], the EC50 [1] is given as 0.9 nM and the CC50 [2] is given as > 8000 nM.

With C#C[C@]1(CO)O[C@@H](n2cnc3c(N)nc(F)nc32)[C@@H](F)[C@@H]1O [type I crystal] the XRPD after heating ([3]; heated to 55° C. under nitrogen, cooled to room temperature, exposed to air) was “diffraction peak intensity of the sample was somewhat decreased” and the XRPD after heating ([3]; heated to 100° C. under nitrogen protection) was “transformed into an amorphous crystal”.

For C#C[C@]1(CO)O[C@@H](n2cnc3c(N)nc(F)nc32)[C@@H](F)[C@@H]1O [type II crystal], the “crystal form after vacuum drying” value ([3]; vacuum drying at room temperature for half an hour) was “transformed into a type III crystal”.

In the case of C#C[C@]1(CO)O[C@@H](n2cnc3c(N)nc(F)nc32)[C@@H](F)[C@@H]1O [type IV crystal], the “stability by TGA” value ([3]; 120° C.) is reported as “unstable”, the “XRPD of dried crystal after closed storage” value ([3]; dried crystal left closed at room temperature for about 5 days) is reported as “increased relative intensity of the diffraction peaks and increased number of diffraction peaks” and the XRPD after heating ([3]; heated to 141° C. under nitrogen protection) is reported as “transformed into a stable type III crystal”. For the same molecule, the “XRPD after vacuum drying” value ([3]; vacuum dried at room temperature for 15 min) was “decreased relative intensity of the diffraction peaks”.

In the case of C#C[C@]1(CO)O[C@@H](n2cnc3c(N)nc(F)nc32)[C@@H](F)[C@@H]1O [type IX crystal], the XRPD after heating ([3]; heated to 95° C. under nitrogen, cooled to room temperature, exposed to air) is reported as “degree of crystallinity was further decreased”, the XRPD after heating [3, 5] is reported as “crystal form had been transformed” and the “crystallinity after closed storage” value ([3]; left closed at room temperature for about 3 days) is reported as “reduced degree of crystallinity”.

For C#C[C@]1(CO)O[C@@H](n2cnc3c(N)nc(F)nc32)[C@@H](F)[C@@H]1O [type V crystal], the “variable-temperature XRPD” value ([3]; further heated to 154° C.) was “transformed into another crystal”, the “variable-temperature XRPD” value ([3]; heated to 90° C. and 130° C. under nitrogen) was “substantially transformed into an amorphous crystal” and the “variable-temperature XRPD, nitrogen purge” value ([3]; purged with nitrogen for about 20 min) was “significant decrease in degree of crystallinity”.

In the case of C#C[C@]1(CO)O[C@@H](n2cnc3c(N)nc(F)nc32)[C@@H](F)[C@@H]1O [type VI crystal], the XRPD after heating [3, 5] is reported as “crystal form was transformed”.

For C#C[C@]1(CO)O[C@@H](n2cnc3c(N)nc(F)nc32)[C@@H](F)[C@@H]1O [type VII crystal], the XRPD after heating ([3]; heated to 130° C. under nitrogen, cooled to room temperature, exposed to air) was “crystal form was transformed”.

With C#C[C@]1(CO)O[C@@H](n2cnc3c(N)nc(F)nc32)[C@@H](F)[C@@H]1O [type X crystal] the “variable-temperature XRPD” value ([3]; further heated to 130° C.) was “diffraction peak intensity was significantly reduced”, the “variable-temperature XRPD” value ([3]; further heated to 145° C.) was “crystal form was transformed” and the “variable-temperature XRPD” value ([3]; heated to 120° C. while purging with nitrogen) was “position of the diffraction peak shifted”.

For C#C[C@]1(CO)O[C@@H](n2cnc3c(N)nc(F)nc32)[C@@H](F)[C@@H]1O [type XII crystal], the “crystal form after vacuum drying” value ([3]; vacuum drying at room temperature for 10 min) was “transformed into an amorphous crystal”.

With C#C[C@]1(CO)O[C@@H](n2cnc3c(N)nc(F)nc32)[C@@H](F)[C@@H]1O [type XIII crystal] the “crystal form in solvent environment” value ([3]; left in a solvent environment at room temperature) was “transformed into the type XIV crystal” and the “crystal form after open drying” value ([3]; open dried at room temperature for about 2 h) was “crystal form was transformed”.

In the case of C#C[C@]1(CO)O[C@@H](n2cnc3c(N)nc(F)nc32)[C@@H](F)[C@@H]1O [type XIV crystal], the “crystal form after removal from solvent” value ([3]; removed from the solvent environment) is reported as “transformed into the type XIII crystal”.

For C#C[C@]1(CO)O[C@@H](n2cnc3c(N)nc(F)nc32)[C@@H](F)[C@@H]1O [type XV crystal], the “crystal form after heating” value ([3]; heated to 120° C.) was “crystal form was transformed”.

With C#C[C@]1(CO)O[C@@H](n2cnc3c(N)nc(F)nc32)[C@@H](F)[C@@H]1O [type XVI crystal] the “crystal form by XRPD after heating” value ([3]; heated to 55° C. in nitrogen atmosphere, held 2 to 24 h) was “type XVII crystal was also obtained”, the “crystal form by XRPD after storage” value ([3]; left at 60±5° C. for 5 days) was “transformed into the type XVIII crystals” and the “crystal form after vacuum drying” value ([3]; vacuum drying at room temperature for 24 h) was “transformed into a monohydrate crystal form—type XVII crystal”.

With C#C[C@]1(CO)O[C@@H](n2cnc3c(N)nc(F)nc32)[C@@H](F)[C@@H]1O [type XVII crystal] the “crystal form after drying” value ([3]; dried at 90° C. for 1 to 24 h) was “obtain the type XVIII crystal” and the “crystal form by XRPD after storage” value ([3]; left for 5 days at 25° C. and 92.5±5% humidity) was “type XVI crystal was obtained”.

With C#C[C@]1(CO)O[C@@H](n2cnc3c(N)nc(F)nc32)[C@@H](F)[C@@H]1O [type XVIII crystal] the “crystal form by XRPD after heating” value ([3]; heated to 150° C.) was “crystal form did not change”, the “crystal form by XRPD after storage” value ([3]; left for 24 h at 25° C. and 92.5±5% humidity) was “crystal form did not change” and the “chemical changes by LC-MS” value [4] was “did not undergo chemical changes”.
